Reference: ChEMBL document CHEMBL1155893 (J Med Chem, 2008)

Legend:
Assay type in all cases: functional, organism-based
Plasmodium falciparum [1] = test: Antimalarial activity against chloroquine-resistant Plasmodium falciparum W2
Plasmodium falciparum [2] = test: Antimalarial activity against multidrug-resistant Plasmodium falciparum TM91C235
Plasmodium falciparum [3] = test: Antimalarial activity against chloroquine,mefloquine-sensitive Plasmodium falciparum D6

Compound | IC50 (Plasmodium falciparum [1]) [nM] | IC90 (Plasmodium falciparum [1]) [nM] | IC50 (Plasmodium falciparum [2]) [nM] | IC90 (Plasmodium falciparum [2]) [nM] | IC50 (Plasmodium falciparum [3]) [nM] | IC90 (Plasmodium falciparum [3]) [nM]
COC(=O)CC[C@@H](C)[C@H]1CC[C@H]2[C@@H]3[C@H](OC(C)=O)C[C@@H]4C[C@@H](NCCNc5ccnc6cc(Cl)ccc56)CC[C@]4(C)[C@H]3C[C@H](OC(C)=O)[C@]12C | 3.38 | 6.74 | 11 | 25 | 6.17 | 10.4
CC(=O)O[C@@H]1CC[C@@]2(C)[C@@H](C1)C[C@@H](OC(C)=O)[C@@H]1[C@@H]2C[C@H](OC(C)=O)[C@]2(C)[C@@H]([C@H](C)CCC(=O)NCCNc3ccnc4cc(Cl)ccc34)CC[C@@H]12 | 48.9 | 70.6 | 28.8 | 34.8 | 19 | 21.1
Clc1ccc2c(NCCCCCNCC34CC5CC(CC(C5)C3)C4)ccnc2c1 | 131 | 168 | 75.3 | 161 | 15.2 | 18.9
CC(=O)O[C@@H]1CC[C@@]2(C)[C@@H](C1)C[C@@H](OC(C)=O)[C@@H]1[C@@H]2C[C@H](OC(C)=O)[C@]2(C)[C@@H]([C@H](C)CCCNCCNc3ccnc4cc(Cl)ccc34)CC[C@@H]12 | 11.4 | 32.5 | 27.7 | 77.9 | 16.9 | 34.2
COC(=O)CC[C@@H](C)[C@H]1CC[C@H]2[C@@H]3[C@H](OC(C)=O)C[C@@H]4C[C@H](OCCNc5ccnc6cc(Cl)ccc56)CC[C@]4(C)[C@H]3C[C@H](OC(C)=O)[C@]12C | 111 | 147 | 50.5 | 72.8 | 33 | 99.3
CC(=O)O[C@@H]1CC[C@@]2(C)[C@@H](C1)C[C@@H](OC(C)=O)[C@@H]1[C@@H]2C[C@H](OC(C)=O)[C@]2(C)[C@@H]([C@H](C)CCC(=O)Nc3ccnc4cc(Cl)ccc34)CC[C@@H]12 | 7190 | – | 3510 | 6060 | 3020 | 6920
CC(=O)O[C@@H]1CC[C@@]2(C)[C@@H](C1)C[C@@H](OC(C)=O)[C@@H]1[C@@H]2C[C@H](OC(C)=O)[C@]2(C)[C@@H]([C@H](C)CCCNc3ccnc4cc(Cl)ccc34)CC[C@@H]12 | 140 | 1180 | 30.1 | 68.6 | 15.8 | 70.5
Clc1ccc2c(NCCNCC34CC5CC(CC(C5)C3)C4)ccnc2c1 | 8.4 | 15.2 | 8.73 | 14.9 | 4.26 | 8.23
O=C(CC12CC3CC(CC(C3)C1)C2)NCCCNc1ccnc2cc(Cl)ccc12 | 337 | 853 | 201 | 464 | 106 | 294
O=C(CC12CC3CC(CC(C3)C1)C2)NCCCCCNc1ccnc2cc(Cl)ccc12 | 518 | 660 | 602 | 777 | 267 | 347
O=C(NCCCNc1ccnc2cc(Cl)ccc12)C12CC3CC(CC(C3)C1)C2 | 878 | 1360 | 525 | 787 | 214 | 370
O=C(CC12CC3CC(CC(C3)C1)C2)NCCNc1ccnc2cc(Cl)ccc12 | 254 | 397 | 238 | 383 | 78.5 | 157
O=C(NCCCCCNc1ccnc2cc(Cl)ccc12)C12CC3CC(CC(C3)C1)C2 | 884 | 1410 | 765 | 984 | 511 | 632
Clc1ccc2c(NCCNCCC34CC5CC(CC(C5)C3)C4)ccnc2c1 | 15.7 | 31 | 17.8 | 24.4 | 8.59 | 13.7
Clc1ccc2c(NCCCCCNCCC34CC5CC(CC(C5)C3)C4)ccnc2c1 | 160 | 311 | 67.2 | 168 | 21.9 | 24.8
Clc1ccc2c(NCCCN(CCC34CC5CC(CC(C5)C3)C4)CCC34CC5CC(CC(C5)C3)C4)ccnc2c1 | 83.2 | 132 | 109 | 171 | 52.2 | 78.3
COC(=O)CC[C@@H](C)[C@H]1CC[C@H]2[C@@H]3[C@H](OC(C)=O)C[C@@H]4C[C@H](NCCNc5ccnc6cc(Cl)ccc56)CC[C@]4(C)[C@H]3C[C@H](OC(C)=O)[C@]12C | 5.74 | 11.2 | 12.8 | 24.4 | 9.47 | 12.3
COC(=O)CC[C@@H](C)[C@H]1CC[C@H]2[C@@H]3[C@H](OC(C)=O)C[C@@H]4C[C@H](Nc5ccnc6cc(Cl)ccc56)CC[C@]4(C)[C@H]3C[C@H](OC(C)=O)[C@]12C | 108 | 563 | 30.1 | 68.6 | 10.7 | 20.7
COC(=O)CC[C@@H](C)[C@H]1CC[C@H]2[C@@H]3[C@H](OC(C)=O)C[C@@H]4C[C@H](OCCNCCNc5ccnc6cc(Cl)ccc56)CC[C@]4(C)[C@H]3C[C@H](OC(C)=O)[C@]12C | 17.8 | 24.6 | 32.2 | 76 | 14.1 | 22.8
CCCNC(=O)CC[C@@H](C)[C@H]1CC[C@H]2[C@@H]3[C@H](OC(C)=O)C[C@@H]4C[C@H](Nc5ccnc6cc(Cl)ccc56)CC[C@]4(C)[C@H]3C[C@H](OC(C)=O)[C@]12C | 209 | 1850 | 99.5 | 367 | 68.2 | 98.2
Clc1ccc2c(NCCCNCC34CC5CC(CC(C5)C3)C4)ccnc2c1 | 12.1 | 20.1 | 7.39 | 20.2 | 3.83 | 6.41
O=C(NCCNc1ccnc2cc(Cl)ccc12)C12CC3CC(CC(C3)C1)C2 | 485 | 724 | 439 | 685 | 202 | 465
Clc1ccc2c(NCCCNCCC34CC5CC(CC(C5)C3)C4)ccnc2c1 | 33.7 | 56.1 | 42.1 | 171 | 11.4 | 23.3
Clc1ccc2c(NCCN(CCC34CC5CC(CC(C5)C3)C4)CCC34CC5CC(CC(C5)C3)C4)ccnc2c1 | 78.2 | 113 | 101 | 225 | 51.9 | 70
C[C@@H]1CC[C@H]2[C@@H](C)C(=O)O[C@@H]3O[C@@]4(C)CC[C@@H]1[C@]32OO4 [ARTEMISININ] | 6.7 | 11.5 | 13 | 17.4 | 9 | 12.8
CCN(CC)CCCC(C)Nc1ccnc2cc(Cl)ccc12 (stereo not given) [CHLOROQUINE] | – | 530 | – | – | – | 16.4
O[C@@H](c1cc(C(F)(F)F)nc2c(C(F)(F)F)cccc12)[C@H]1CCCCN1 [MEFLOQUINE] | – | 14.7 | – | 106 | 11.2 | 28.1
